Test results reported in patent US7173004B2, “Macrocyclic isoquinoline peptide inhibitors of hepatitis C virus” (Bristol-Myers Squibb Company, priority 2003, dated 2007).

target: T1, HCV NS3/4A protease complex, BMS strain (genotype 1a) (UniProt P27958, C1454S/C1711G, species not given/STRAIN_BMS); assay: Recombinant HCV NS3/4A protease complex FRET peptide assay, BMS strain; assay type: biochemical; conditions: NS3/4A BMS Strain; activity range classes
T1 construct: b1001: DNA encoding the recombinant HCV NS3/4A protease complex (amino acids 1027 to 1711) ... a three-lysine solubilizing tail was added at the 3′-end of the NS4A coding region; fused on or other part: Three-lysine solubilising tail at the C-terminus of NS4A; A His tag is implied by the pET21b vector and Ni-NTA purification
From the text: Recombinant HCV NS3/4A Protease Complex FRET Peptide Assay
The purpose of this in vitro assay was to measure the inhibition of HCV NS3 protease complexes, derived from the BMS strain, H77C strain or J416S strain, as described below, by compounds of the present invention. This assay provides an indication of how effective compounds of the present invention would be in inhibiting HCV proteolytic activity.
Serum from an HCV-infected patient was obtained from Dr. T. Wright, San Francisco Hospital. An engineered full-length cDNA (compliment deoxyribonucleic acid) template of the HCV genome (BMS strain) was constructed from DNA fragments obtained by reverse transcription-PCR (RT-PCR) of serum RNA (ribonucleic acid) and using primers selected on the basis of homology between other genotype 1a strains. From the determination of the entire genome sequence, a genotype 1a was assigned to the HCV isolate according to the classification of Simmonds et al. (See P Simmonds, K A Rose, S Graham, S W Chan, F McOmish, B C Dow, E A Follett, P L Yap and H Marsden, J. Clin. Microbiol., 31(6), 1493–1503 (1993)). […] The infectious clones, H77C (1a genotype) and J4L6S (1b genotype) were obtained from R. Purcell (NIH) and the sequences are published in Genbank (AAB67036, see Yanagi, M., Purcell, R. H., Emerson, S. U. and Bukh, J. Proc. Natl. Acad. Sci. U.S.A. 94(16), 8738–8743 (1997); AF054247, see Yanagi, M., St Claire, M., Shapiro, M., Emerson, S. U., Purcell, R. H. and Bukh, J, Virology 244 (1), 161–172. (1998)).
The H77C and J4L6S strains were used for production of recombinant NS3/4A protease complexes. DNA encoding the recombinant HCV NS3/4A protease complex (amino acids 1027 to 1711) for these strains were manipulated as described by P. Gallinari et al. (see Gallinari P, Paolini C, Brennan D, Nardi C, Steinkuhler C, De Francesco R. Biochemistry. 38(17):5620–32, (1999)). Briefly, a three-lysine solubilizing tail was added at the 3′-end of the NS4A coding region. The cysteine in the P1 position of the NS4A-NS4B cleavage site (amino acid 1711) was changed to a glycine to avoid the proteolytic cleavage of the lysine tag. Furthermore, a cysteine to serine mutation was introduced by PCR at amino acid position 1454 to prevent the autolytic cleavage in the NS3 helicase domain. The variant DNA fragment was cloned in the pET21b bacterial expression vector (Novagen) and the NS3/4A complex was expressed in Escherichia coli strain BL21 (DE3) (Invitrogen) following the protocol described by P. Gallinari et al. (see Gallinari P, Brennan D, Nardi C, Brunetti M, Tomei L, Steinkuhler C, De Francesco R., J. Virol. 72(8):6758–69 (1998)) with modifications. Briefly, NS3/4A expression was induced with 0.5 mM Isopropyl β-D-1-thiogalactopyranoside (IPTG) for 22 hr at 20° C. A typical fermentation (10 L) yielded approximately 80 g of wet cell paste. The cells were resuspended in lysis buffer (10 mL/g) consisting of 25 mM N-(2-Hydroxyethyl)piperazine-N′-(2-Ethane Sulfonic acid) (HEPES), pH7.5, 20% glycerol, 500 mM Sodium Chloride (NaCl), 0.5% Triton-X100, 1 microgram/milliliter (“μg/mL”) lysozyme, 5 mM Magnesium Chloride (MgCl2), 1 ug/ml DnaseI, 5 mM β-Mercaptoethanol (βME), Protease inhibitor—Ethylenediamine Tetraacetic acid (EDTA) free (Roche), homogenized and incubated for 20 mins at 4° C. The homogenate was sonicated and clarified by ultra-centrifugation at 235000 g for 1 hr at 4° C. Imidazole was added to the supernatant to a final concentration of 15 mM and the pH adjusted to 8.0. The crude protein extract was loaded on a Nickel-Nitrilotriacetic acid (Ni-NTA) column pre-equilibrated with buffer B (25 mM HEPES, pH8.0, 20% glycerol, 500 mM NaCl, 0.5% Triton-X100, 15 mM imidazole, 5 mM βME). The sample was loaded at a flow rate of 1 mL/min. The column was washed with 15 column volumes of buffer C (same as buffer B except with 0.2% Triton-X100). The protein was eluted with 5 column volumes of buffer D (same as buffer C except with 200 mM Imidazole). […]

| Structure (SMILES) | IC50 [nM] |
| --- | --- |
| COc1ccc2c(OC3CC4C(=O)NC5(C(=O)O)CC5C=CCOCCCC(NC(=O)OC(C)(C)C)C(=O)N4C3)nccc2c1 (stereo not shown) [Compound 27, 14-tert-Butoxycarbonylamino-18-(6-methoxy-isoquinolin-1-yloxy)-2,15-dioxo-10-oxa-3,16-diaza-tricyclo[14.3.0.0^4,6]nonadec-7-ene-4-carboxylic acid] | 50 to 500 |

same assay, conditions: NS3/4A BMS strain; activity range symbols

| Structure (SMILES) | IC50 [nM] |
| --- | --- |
| O=C(N[C@H]1CCCCC/C=C\[C@@H]2C[C@@]2(C(=O)NS(=O)(=O)C2CC2)NC(=O)[C@@H]2C[C@@H](Oc3nccc4ccccc34)CN2C1=O)O[C@H]1CCOC1 [Compound 15, [4-Cyclopropanesulfonylaminocarbonyl-18-(isoquinolin-1-yloxy)-2,15-dioxo-3,16-diaza-tricyclo[14.3.0.0^4,6]nonadec-7-en-14-yl]-carbamic acid tetrahydro-furan-3-yl ester] | < 50 |
| CCC1(S(=O)(=O)NC(=O)C23CC2C=CCOCCCC(NC(=O)OC(C)C)C(=O)N2CC(Oc4nccc5cc(OC)ccc45)CC2C(=O)N3)CC1 (stereo not shown) [Compound 37] | < 50 |
| CCC1(S(=O)(=O)NC(=O)C23CC2C=CCCCCCC(NC(=O)OC(C)(C)C)C(=O)N2CC(Oc4nccc5cc(OC)ccc45)CC2C(=O)N3)CC1 (stereo not shown) [Compound 54] | < 50 |
| CCC1(S(=O)(=O)NC(=O)C23CC2C=CCCCOC(C)C(NC(=O)OC(C)(C)C)C(=O)N2CC(Oc4nccc5cc(OC)ccc45)CC2C(=O)N3)CC1 (stereo not shown) [Compound 70] | < 50 |
| CC(C)(C)OC(=O)N[C@H]1CCCCC/C=C\[C@@H]2C[C@@]2(C(=O)NS(=O)(=O)C2(C)CC2)NC(=O)[C@@H]2C[C@@H](Oc3nccc4ccccc34)CN2C1=O [Compound 8, [18-(Isoquinolin-1-yloxy)-4-(1-methyl-cyclopropanesulfonylaminocarbonyl)-2,15-dioxo-3,16-diaza-tricyclo[14.3.0.0^4,6]nonadec-7-en-14-yl]-carbamic acid tert-butyl ester] | < 50 |
| CC(C)(C)OC(=O)N[C@H]1CCCCC/C=C\[C@@H]2C[C@@]2(C(=O)NS(=O)(=O)C2CC2)NC(=O)[C@@H]2C[C@@H](Oc3nccc4ccccc34)CN2C1=O [Compound 4, [4-Cyclopropanesulfonylaminocarbonyl-18-(isoquinolin-1-yloxy)-2,15-dioxo-3,16-diaza-tricyclo[14.3.0.0^4,6]nonadec-7-en-14-yl]-carbamic acid tert-butyl ester] | < 50 |
| COc1ccc2c(OC3CC4C(=O)NC5(C(=O)NS(=O)(=O)C6CC6)CC5C=CCOCCCC(NC(=O)OC(C)(C)C(F)(F)F)C(=O)N4C3)nccc2c1 (stereo not shown) [Compound 39] | < 50 |
| CC(C)(C)OC(=O)N[C@H]1CCCCC/C=C\[C@@H]2C[C@@]2(C(=O)NS(=O)(=O)C2(Cc3ccccc3)CC2)NC(=O)[C@@H]2C[C@@H](Oc3nccc4ccccc34)CN2C1=O [Compound 5, [4-(1-Benzyl-cyclopropanesulfonylaminocarbonyl)-18-(isoquinolin-1-yloxy)-2,15-dioxo-3,16-diaza-tricyclo[14.3.0.0^4,6]nonadec-7-en-14-yl]-carbamic acid tert-butyl ester] | < 50 |
| COc1ccc2c(OC3CC4C(=O)NC5(C(=O)NS(=O)(=O)C6CC6)CC5C=CCCCSCC(NC(=O)OC(C)C)C(=O)N4C3)nccc2c1 (stereo not shown) [Compound 74] | < 50 |
| CC(C)(C)OC(=O)N[C@H]1CCCCC/C=C\[C@@H]2C[C@@]2(C(=O)NS(=O)(=O)C2CCC2)NC(=O)[C@@H]2C[C@@H](Oc3nccc4ccccc34)CN2C1=O [Compound 9, [4-Cyclobutanesulfonylaminocarbonyl-18-(isoquinolin-1-yloxy)-2,15-dioxo-3,16-diaza-tricyclo[14.3.0.0^4,6]nonadec-7-en-14-yl]-carbamic acid tert-butyl ester] | < 50 |
| COc1ccc2c(OC3CC4C(=O)NC5(C(=O)NS(=O)(=O)C6(C)CC6)CC5C=CCOCCCC(NC(=O)OC(C)(C)C)C(=O)N4C3)nccc2c1 (stereo not shown) [Compound 29] | < 50 |
| COc1ccc2c(O[C@@H]3C[C@H]4C(=O)N[C@]5(C(=O)NS(=O)(=O)C6CC6)C[C@H]5/C=C\CCCS(=O)(=O)C[C@H](NC(=O)OC(C)(C)C)C(=O)N4C3)nccc2c1 [Compound 19] | < 50 |
